Results on 2 compounds are retold here after patent US20110294799A1, “Organic Compounds” (NOVARTIS AG, priority 2007, published 2011).

The target in test [1] is T1, GABA-A alpha1 receptor (alpha 1 subunit together with a beta and a gamma subunit) (Homo sapiens, UniProt P14867+P18507).
T1 construct: expressed in transfected cells
T1 sequence (P14867 28-456): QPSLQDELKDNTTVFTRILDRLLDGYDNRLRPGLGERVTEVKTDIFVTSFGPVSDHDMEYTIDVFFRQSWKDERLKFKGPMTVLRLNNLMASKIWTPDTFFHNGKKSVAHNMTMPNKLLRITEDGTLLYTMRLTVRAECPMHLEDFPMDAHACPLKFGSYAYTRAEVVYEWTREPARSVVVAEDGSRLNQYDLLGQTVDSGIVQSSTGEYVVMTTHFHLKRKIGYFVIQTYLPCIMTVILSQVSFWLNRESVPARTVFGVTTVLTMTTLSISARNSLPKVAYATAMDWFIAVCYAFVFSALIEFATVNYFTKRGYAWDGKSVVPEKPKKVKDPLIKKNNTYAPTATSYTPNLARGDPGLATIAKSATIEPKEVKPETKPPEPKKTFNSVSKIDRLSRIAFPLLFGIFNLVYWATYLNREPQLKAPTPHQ
T1 sequence (P47870 25-512 partner limits assumed): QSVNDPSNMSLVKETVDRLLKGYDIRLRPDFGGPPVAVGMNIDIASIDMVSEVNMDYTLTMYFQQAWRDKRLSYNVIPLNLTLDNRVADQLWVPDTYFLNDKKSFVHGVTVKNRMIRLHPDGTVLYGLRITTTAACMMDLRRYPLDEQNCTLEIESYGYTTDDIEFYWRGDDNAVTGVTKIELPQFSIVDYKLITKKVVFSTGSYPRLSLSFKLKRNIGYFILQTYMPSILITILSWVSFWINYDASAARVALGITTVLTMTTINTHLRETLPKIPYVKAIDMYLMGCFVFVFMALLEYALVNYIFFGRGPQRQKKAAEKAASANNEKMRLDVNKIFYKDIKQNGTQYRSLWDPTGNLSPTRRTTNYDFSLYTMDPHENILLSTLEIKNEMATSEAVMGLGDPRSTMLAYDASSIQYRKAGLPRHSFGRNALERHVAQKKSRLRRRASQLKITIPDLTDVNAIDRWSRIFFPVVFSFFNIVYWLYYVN
T1 sequence (P18507 40-467 limits assumed): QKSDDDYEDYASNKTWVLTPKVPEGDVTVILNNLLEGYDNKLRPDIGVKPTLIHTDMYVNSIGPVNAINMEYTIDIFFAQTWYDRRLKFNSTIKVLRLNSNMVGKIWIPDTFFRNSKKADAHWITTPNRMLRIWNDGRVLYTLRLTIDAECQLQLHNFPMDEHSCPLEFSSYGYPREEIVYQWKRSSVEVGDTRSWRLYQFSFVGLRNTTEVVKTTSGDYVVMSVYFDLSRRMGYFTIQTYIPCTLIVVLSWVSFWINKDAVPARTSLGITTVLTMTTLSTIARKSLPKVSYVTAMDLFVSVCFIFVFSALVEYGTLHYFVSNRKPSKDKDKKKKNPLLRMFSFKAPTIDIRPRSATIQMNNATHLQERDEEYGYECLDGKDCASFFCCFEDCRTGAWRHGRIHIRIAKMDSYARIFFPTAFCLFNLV
Kind of test: GABA-A receptor modulation, voltage-sensitive dye fluorescence in transfected eukaryotic cell line (alpha1). The format is cell-based. To be noted: compounds at 3 μM; sub-maximal concentration of GABA (EC20); read-out: alpha1 % mod (percentage of increase of the fluorescent signal compared to signal without the agent). From the text:
(§1) GABA-A receptor modulators show in functional assays a positive modulation of GABA-induced signals. This modulation can be determined in vitro, e.g., at recombinant GABA-A receptors expressed in a mammalian cell line, e.g. by measurement of GABA-A receptor induced changes of the trans-membrane voltage, when using a voltage-sensitive dye and a fluorescence detection system (Adkins, C. E., Pillai, G. V., Kerby, J., Bonnert, T. P., Haldon, C., Mckernan, R. M., Gonzalez, J. E., Oades, K., Whiting, P. J. & Simpson, P. B. [2001]. alpha4beta3delta GABA-A receptors characterized by fluorescence resonance energy transfer-derived measurements of membrane potential. J. Biol. Chem., 276, 38934-38939). In this assay, a modulator compound is pre-applied at different concentrations ranging from 0.1 nM to 10 μM to cells expressing GABA-A receptors and loaded with the voltage-sensitive dye, before, or at the same time as, a sub-maximal concentration of GABA (in the range of from 0.1 to 10 μM) is applied to the cells. The fluorescent signal is correlated with the degree of GABA-A receptor channel opening. This allows the quantification of effects induced by the modulator in a functional manner. By expression of different GABA-A receptor subunit combinations, the differential efficacy of a modulator at different GABA-A receptor variants can be tested. Other functional assays include the electrophysiological recording of Xenopus oocytes or mammalian cells expressing respective receptor variants. In addition, ion flux detectors can be used to functionally study GABA-A receptors in heterologous expression systems. The affinity of a compound to the GABA-A receptor can be measured in radioligand binding experiments using reference ligands containing a radioactive element, e.g., tritiated flumazenil, and intact cells or membrane preparations of cells expressing GABA-A receptors.
(§2) Activity and selectivity of a GABA-A receptor modulator according to the invention can, e.g., be determined in vitro as follows: A transfected eukaryotic cell line expressing the alpha1, alpha2 or alpha3 subunit of the GABA-A receptor together with a beta and a gamma subunit of the GABA-A receptor is incubated with a voltage-sensitive dye, and the effects of an agonist (typically GABA) or modulator addition are recorded in a fluorimetric plate reader. The opening of the GABA-A receptor channel and the subsequent flux of anions through it changes the trans-membrane voltage of the transfected cells, leading to a change in the fluorescent signal of the voltage-sensitive dye. In the presence of the agent of the invention, a sub-maximal concentration of GABA (e.g. an EC20 or an EC50) added to transfected cells expressing the alpha1, alpha2 or alpha3 subunit of the GABA-A receptor will elicit an at least 50%, preferably an at least 80%, ideally an at least 100%, increase, of the fluorescent signal, compared to the fluorescent signal obtained without the agent of the invention. In this assay, agents of the invention modulate the GABA-induced response at concentration from about 0.1 to about 10′000 nM.

In test [2] the target is T2, GABA-A alpha2 receptor (alpha 2 subunit together with a beta and a gamma subunit) (Homo sapiens, UniProt P18507+P47869).
T2 construct: expressed in transfected cells
T2 sequence (P47869 29-451): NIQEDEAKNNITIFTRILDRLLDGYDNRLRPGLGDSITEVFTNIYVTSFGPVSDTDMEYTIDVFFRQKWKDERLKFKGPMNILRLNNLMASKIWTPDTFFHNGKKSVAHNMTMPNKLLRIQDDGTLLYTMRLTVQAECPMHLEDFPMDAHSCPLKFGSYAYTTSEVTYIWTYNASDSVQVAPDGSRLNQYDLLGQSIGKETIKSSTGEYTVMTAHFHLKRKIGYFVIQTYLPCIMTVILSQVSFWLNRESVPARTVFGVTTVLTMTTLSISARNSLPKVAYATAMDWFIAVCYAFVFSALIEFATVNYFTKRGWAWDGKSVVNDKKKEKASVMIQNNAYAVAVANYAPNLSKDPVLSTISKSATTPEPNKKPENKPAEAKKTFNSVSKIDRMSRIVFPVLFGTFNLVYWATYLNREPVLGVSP
T2 sequence (P47870 25-512 partner limits assumed): T1 sequence (P47870 25-512 partner limits assumed)
T2 sequence (P18507 40-467 limits assumed): T1 sequence (P18507 40-467 limits assumed)
Kind of test: GABA-A receptor modulation, voltage-sensitive dye fluorescence in transfected eukaryotic cell line (alpha2). Type of test: cell-based. To be noted: compounds at 3 μM; sub-maximal concentration of GABA (EC20); read-out: alpha2 % mod (percentage of increase of the fluorescent signal compared to signal without the agent).
From the text: as §1, §2

For the compound `Clc1ccc(-n2nc3c(cnc4ccc(Br)cc43)c2OCc2ccccc2Cl)cc1` [Example 115, 8-Bromo-3-(2-chloro-benzyloxy)-2-(4-chloro-phenyl)-2H-pyrazolo[4,3-c]quinoline], the results for the activation at 3 µM in test [1] and in test [2] were 26% and 66%, respectively.

As for `COc1ccc(-n2nc3c(cnc4ccccc43)c2OCCCN2CCN(C)C2=O)cc1` [Example 17, 1-(3-{[2-(4-methoxyphenyl)-2H-pyrazolo[4,3-c]quinolin-3-yl]oxy}propyl)-3-methylimidazolidin-2-one], the activation at 3 µM came out at 262% in test [1] and 577% in test [2].
